One data set has as its system A549 cells. The data set can be described thus: cell viability MTT assay, A549. Conditions: mean ± SD of two experiments, read-out: A549 antiproliferative activity IC50. The data set is classed as cell-based, human. Here is the method: (§1) The antiproliferative activity of all compounds was evaluated in (i) DU145, an androgen-independent prostate cancer cell line; (ii) HeLa, a cervical cancer cell line; and (iii) A549, a lung adenocarcinoma cell line (Table 1). […] Undoubtedly, this preliminary cytotoxicity data will need further characterization, also in relation to the in vitro activity of these compounds.
(§2) Human cancer cell lines A549 (lung adenocarcinoma, ATCC CCL-185), DU-145 (androgen-independent prostate cancer, ATCC HTB-81), and HeLa (cervical carcinoma, ATCC CCL-2) were obtained from ATCC. Cells were routinely grown in minimal essential medium containing Eagle’s salts and L-glutamine supplemented with 10% heat-inactivated FBS in a humidified atmosphere of 5% CO2 at 37 °C. To assess the antiproliferative activity of the compounds, cells were seeded at a density of 2500 cells/well (HeLa) or 5000 cells/well (A549, DU-145) in 96-well plates, and cell viability was measured using the MTT assay as described previously.[39] Values are reported as the mean ± SD of two independent experiments.

For the next data set, the system named is HeLa cells. The data set can be described thus: cell viability MTT assay, HeLa. Format: cell-based, human. Conditions: HeLa cervical cancer cells, mean ± SD of two experiments, read-out: HeLa antiproliferative activity IC50. Here is the method:
as §1, §2

Data set [1] is described as follows: in vivo pharmacokinetics in mice. The following applies: mouse. Here is the method:
Finally, on the basis of the overall results and drug-like profile, 3f was selected as our lead for in vivo pharmacokinetics studies, as a preparatory characterization for future analyses of in vivo drug efficacy in animal models of cancer. We tested two different routes of administration: (i) intravenous (iv) injection at a concentration of 3 mg/kg (n = 3 for each time point) and oral (po) treatment at a dose of 10 mg/kg (n = 3 for each time point). Despite the relatively low thermodynamic solubility of 3f (30 μM in PBS), the compound reached the target concentration in the formulation used for the in vivo experiments. The mean plasma concentration versus time profile of 3f is shown in Figure 5, and the corresponding pharmacokinetic parameters are summarized in the inserted table.
Male C57B6/J male mice, 8 weeks old, 25-30 g were used (Charles River). All procedures were performed in accordance with the Ethical Guidelines of European Communities Council (Directive 2010/63/EU of 22 September 2010) and accepted by the Italian Ministry of Health. All efforts were made to minimize animal suffering and to use the minimal number of animals required to produce reliable results, according to the “3Rs concept”. Animals were group-housed in ventilated cages (n=5 mice per cage) and had free access to food and water. They were maintained under a 12-hour light/dark cycle (lights on at 8:00 am) at controlled temperature (21°C ± 1°C) and relative humi dity […]
4. Pharm acok inet ic studies
Compound 3f was administered orally (P.O.) and intravenously (I.V.) to C57B6/J male mice at 10 and 3 mg/Kg dose. Vehicle was: PEG400/Tween 80/Saline solution at 10/10/80 % in volume respectively. 3f was first dissolved in 100% PEG, then diluted to the final target concentration in this vehicle. The target concentration of 3f in the dosing solution was checked and confirmed by LC-MS .
The dosing solutions were diluted differently in the vehicle. The different dilutions were further diluted 4-fold with CH3CN prior to analysis. A reference standard was spiked in the vehicle to prepare a calibration curve over a 0.1 -10µM range. The ca librators were also diluted 4 -fold with CH3CN as for the dosing solution dilutions. The dosing solutions and calibrators were analys ed under the sam e conditions as for the plasma samples described below.
Three animals per dose were treated. Blood samples at 0, 15, 30, 60, 120, 240, and 480 minutes after administration were collected for PO arm. Blood samples at 0, 5, 15, 30, 60, 120 and 240 minutes after administration were collected for IV arm. Plasma was separated from blood by centrifugation for 15 minutes at 3500 rpm a 4°C, collected in a eppendorf tube and frozen ( -80°C). Brain samples were homogenized in Phosphate buffered saline a nd were then split in two aliquots kept at -80 °C until analysis. An aliquot was used for compound brain level evaluations, following the same procedure described below for plasma samples. The second aliquot was kept for protein content evaluation by bicinchoninic acid assay (BC A). Control animals treated with vehicle only w ere also included in the experimental protocol.
Plasma samples were centrifuged at 21.100g for 15min. at 4°C. A 50µl aliquot was transferred into a 96-Deep Well plate and 150µl of extraction so lution was added. The extraction solution was consisting of cold CH3CN spiked with 200n M of internal standard. The plate was centrifuged at 3270g for 15min. at 4°C. 80µl of supernatant was then transferred into a 96 -Deep Well plate and 80µl of H2O was added. A reference standard of the compound was spiked in naïve mouse plasma to prepare a calibration curve over a 1nM – 10µM range. Three quality control samples were prepared by spiking the compound in blank mouse plasma to the final concentrations of 20, 200 and 2000nM.
Calibrators and quality controls were extracted wit h the same e xtraction solution used for the plasma samples. The samples w ere analysed on a W aters ACQUITY UPLC/MS TQD system (Water s Inc. […]

In a further data set the target is T1, human topoIIα (Homo sapiens, UniProt P11388).
T1 construct: purchased Inspiralis
T1 sequence (P11388 whole entry): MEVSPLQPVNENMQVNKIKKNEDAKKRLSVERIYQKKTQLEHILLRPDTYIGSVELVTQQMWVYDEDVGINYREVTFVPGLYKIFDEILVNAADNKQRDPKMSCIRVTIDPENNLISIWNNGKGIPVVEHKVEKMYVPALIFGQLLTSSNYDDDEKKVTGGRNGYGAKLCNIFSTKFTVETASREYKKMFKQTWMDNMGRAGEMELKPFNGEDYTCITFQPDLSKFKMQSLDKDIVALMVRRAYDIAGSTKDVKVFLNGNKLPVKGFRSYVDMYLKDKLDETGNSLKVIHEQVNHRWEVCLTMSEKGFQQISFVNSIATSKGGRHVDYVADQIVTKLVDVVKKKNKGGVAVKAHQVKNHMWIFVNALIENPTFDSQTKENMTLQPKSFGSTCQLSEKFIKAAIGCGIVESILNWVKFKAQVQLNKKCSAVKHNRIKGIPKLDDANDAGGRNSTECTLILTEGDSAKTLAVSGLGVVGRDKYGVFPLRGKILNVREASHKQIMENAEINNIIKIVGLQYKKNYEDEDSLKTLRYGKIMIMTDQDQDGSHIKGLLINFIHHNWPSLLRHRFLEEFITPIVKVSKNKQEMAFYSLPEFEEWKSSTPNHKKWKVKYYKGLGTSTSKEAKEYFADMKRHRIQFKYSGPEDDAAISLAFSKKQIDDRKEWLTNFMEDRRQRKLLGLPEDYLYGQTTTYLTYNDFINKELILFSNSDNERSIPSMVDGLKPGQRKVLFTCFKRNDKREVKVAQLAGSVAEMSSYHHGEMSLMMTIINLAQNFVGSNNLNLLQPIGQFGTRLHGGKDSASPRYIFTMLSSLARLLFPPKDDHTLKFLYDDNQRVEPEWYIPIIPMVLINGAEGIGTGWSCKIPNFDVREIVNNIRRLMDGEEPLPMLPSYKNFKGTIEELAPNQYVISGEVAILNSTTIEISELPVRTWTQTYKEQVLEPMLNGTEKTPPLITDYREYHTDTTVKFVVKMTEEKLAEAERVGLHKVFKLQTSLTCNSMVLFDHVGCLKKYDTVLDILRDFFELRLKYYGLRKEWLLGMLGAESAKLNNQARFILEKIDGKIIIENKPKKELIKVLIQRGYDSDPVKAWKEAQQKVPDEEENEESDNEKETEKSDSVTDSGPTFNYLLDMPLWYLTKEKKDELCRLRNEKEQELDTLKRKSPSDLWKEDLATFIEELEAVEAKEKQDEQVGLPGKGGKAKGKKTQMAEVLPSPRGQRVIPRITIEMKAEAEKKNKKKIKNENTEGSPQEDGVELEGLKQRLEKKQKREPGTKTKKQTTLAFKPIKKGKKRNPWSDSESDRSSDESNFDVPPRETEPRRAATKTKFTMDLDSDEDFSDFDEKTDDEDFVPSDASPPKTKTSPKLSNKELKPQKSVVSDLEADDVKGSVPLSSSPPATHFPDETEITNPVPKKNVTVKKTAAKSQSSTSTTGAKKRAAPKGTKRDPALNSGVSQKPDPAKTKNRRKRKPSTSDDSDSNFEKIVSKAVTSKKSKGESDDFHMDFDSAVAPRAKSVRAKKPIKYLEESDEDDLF
In words: topoII decatenation assay (Inspiralis). The data set is classed as biochemical. Here is the method: We measured the inhibitor activity of our new compounds against human topoIIα, using a topoII decatenation assay (Table 1).
The activity of topoIIα was measured using a decatenation assay (Inspiralis) following the manufacturer’s instructions. Compounds were dissolved in DMSO and used at a concentration ranging from 200 to 1 μM. Final DMSO concentration in the assay was ≤1%. Reaction mixtures were incubated for 30 min at 37 °C and terminated with STEB buffer (40% (w/v) sucrose, 100 mM Tris-HCl, pH 8, 1 mM EDTA, 0.5 mg/mL bromophenol blue). Reaction products were resolved by electrophoresis in 1% agarose gels containing SYBR Safe DNA stain (Invitrogen), scanned, and quantified using the ChemiDoc system (BioRad). IC50 values were obtained with GraphPad Prism software (version 5.03) using the band intensities of the dose–response gels. Values are reported as the mean ± SD of two independent experiments.

Molecules are shown by their SMILES. Read-outs that look alike come from different tables or passages of the source.

A word on the IC50: it is the concentration that gives 50% inhibition. Broadly, the bioavailability is the share of a dose that reaches the circulation, judged against a reference dose that is usually intravenous. The Tmax is the time at which the peak concentration occurs. For orientation: Cmax means the peak of the concentration-time curve. `O=C(Nc1cccc(OC(F)(F)F)c1)c1c(O)n(-c2ccccc2)c(=S)n(-c2ccccc2)c1=O` [3f, 6-Hydroxy-4-oxo-1,3-diphenyl-2-thioxo-N-(3-(trifluoromethoxy)phenyl)-1,2,3,4-tetrahydropyrimidine-5-carboxamide]: the IC50 in the data set with A549 cells (A549 lung adenocarcinoma cells) stood at 3.1 ± 0.1 µM. For the same molecule, the IC50 with A549 cells (Homo sapiens, A549, A549 lung adenocarcinoma cells) is less than 5 µM. For the same molecule, the IC50 in the data set on HeLa cells came out at 3.8 ± 0.3 µM. Also, the IC50 in the data set on HeLa cells (Homo sapiens, HeLa) was less than 5 µM. In addition, the concentration at 2 h in data set [1] (male, C57B6/J, plasma, iv 3 mg/kg, 2 h, read-out: plasma concentration after 2 h) was 551 ng/mL. The bioavailability in data set [1] (male, C57B6/J, plasma, po 10 mg/kg vs iv 3 mg/kg, based on AUC from t = 0 to 240 min, read-out: bioavailability F) amounted to 8%. In addition, in data set [1] (iv 3 mg/kg), the AUCplasma stood at 295528 ng·min/mL, the CL came to 4 mL/min/kg, the Clp turned out to be 0.004 L min^–1 kg^–1 and the Tmax stood at 5 min. Moreover, in data set [1] (iv 3 mg/kg), the Vd is given as 3 L/kg and the “t½ (elimination phase)” value worked out at 30 min. In addition, in data set [1] (iv 3 mg/kg or po 10 mg/kg), the “tolerability during PK studies” value is given as “well tolerated” and the treatment-related clinical signs result was “no treatment-related clinical signs were observed”. Moreover, the Cmax in data set [1] (iv 3 mg/kg, plasma) is 7366 ng/mL. In data set [1] (po 10 mg/kg), the AUCplasma was 77385 ng·min/mL; the Tmax worked out at 120 min; the Vd came out at 18 L/kg; the “plasma concentration reached at 1 h and stably maintained for at least 6 h” value is “about 400 ng/mL”. In addition, in data set [1] (po 10 mg/kg), the “time of maximum concentration” value is given as “approximately 2 h” and the “t½ (elimination phase)” value is 190 min. The Cmax in data set [1] (po 10 mg/kg, plasma) came to 428 ng/mL. Also, the IC50 at human topoIIα (human topoIIα decatenation assay, mean ± SD of two independent experiments, read-out: IC50) was found to be 7.3 ± 1.5 µM. In addition, the “fold increased activity compared to ARN16267” value at human topoIIα (topoIIα decatenation IC50 versus ARN16267) is 2 fold.

The values above are taken from article PMC7997578, “Design, Synthesis, Dynamic Docking, Biochemical Characterization, and in Vivo Pharmacokinetics Studies of Novel Topoisomerase II Poisons with Promising Antiproliferative Activity” (Journal of Medicinal Chemistry, 2020).
